Measured values published in US9440953B2, “Substituted amino triazoles useful as acidic mammalian chitinase inhibitors” (OncoArendi Therapeutics Sp z o.o., priority 2014, dated 2016).

Molecular target: recombinant human AMCase (Homo sapiens, UniProt Q9BZP6)
Experiment: Human AMCase Activity Assay
Type: biochemical
Conditions: recombinant hAMCase, 4-methylumbelliferyl B-D-N,N′-diacetylchitobioside substrate, citrate buffer pH 5.2, 37° C., 60 minutes
Protocol: Human AMCase Activity Assay
The assay was run in the 96-well plate format, each reaction in the total volume of 100 μL. 4-Methylumbelliferyl B-D-N,N′-diacetylchitobioside hydrate was used as a substrate for the enzyme. Upon hydrolysis by AMCase, the substrate releases 4-methylumbelliferyl (4MU) that, when ionized in basic pH, emits fluorescence at 460 nm.
Briefly, 40 μL of a substrate was added to each well, followed by 10 μL of compound dilution and 50 μL of hAMCase recombinant enzyme solution. […] The fluorescence of the reaction product was measured in Perkin Elmer Envision fluorescent plate reader at an excitation wavelength of 355 nm.

recombinant human AMCase, sequence (Q9BZP6 22-476): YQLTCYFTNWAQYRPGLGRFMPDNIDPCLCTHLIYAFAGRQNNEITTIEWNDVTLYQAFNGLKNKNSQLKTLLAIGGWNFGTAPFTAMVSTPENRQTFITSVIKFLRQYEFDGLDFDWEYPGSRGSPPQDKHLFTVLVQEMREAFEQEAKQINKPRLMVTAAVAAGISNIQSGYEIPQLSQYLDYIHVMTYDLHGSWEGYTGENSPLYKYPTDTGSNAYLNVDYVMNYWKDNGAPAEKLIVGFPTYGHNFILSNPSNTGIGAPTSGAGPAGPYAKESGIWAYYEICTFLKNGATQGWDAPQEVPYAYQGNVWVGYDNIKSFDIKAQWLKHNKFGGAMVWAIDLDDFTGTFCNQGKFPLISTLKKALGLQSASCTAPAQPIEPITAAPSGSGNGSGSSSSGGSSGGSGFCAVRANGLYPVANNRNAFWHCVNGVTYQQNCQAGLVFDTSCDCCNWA

Q: CC(C)NC(=O)CN(CCc1ccc(Cl)cc1)C1CCN(c2nc(N)n[nH]2)CC1 [Example 22, 2-((1-(3-amino-1H-1,2,4-triazol-5-yl)piperidin-4-yl)(4-chlorophenethyl)amino)-N-isopropylacetamide] was tested. Which IC50 did it give?
A: 100 to 1000 nM

Q: With Cc1ccc(S(=O)(=O)NCCN(CCc2ccc(Br)cc2)C2CCN(c3nc(N)n[nH]3)CC2)cc1 [Example 42, N-(2-((1-(3-amino-1H-1,2,4-triazol-5-yl)piperidin-4-yl)(4-bromophenethyl)-amino)ethyl)-4-methylbenzenesulfonamide] as the molecule, how does the IC50 read?
A: 1 to 10 nM

Q: Which IC50 does the source give for Nc1n[nH]c(N2CCC(N(CCc3ccc(Br)cc3)Cc3ccc(C(=O)O)cc3)CC2)n1 [Example 4, 4-(((1-(3-amino-1H-1,2,4-triazol-5-yl)piperidin-4-yl)(4-bromophenethyl)-amino)methyl)benzoic acid] here?
A: 1 to 10 nM

Q: For CC(=O)NS(=O)(=O)c1ccc(CN(CCc2ccc(Br)cc2)C2CCN(c3nc(N)n[nH]3)CC2)cc1 [Example 16, N-((4-(((1-(3-amino-1H-1,2,4-triazol-5-yl)piperidin-4-yl)(4-bromophenethyl)-amino)methyl)phenyl)sulfonyl)acetamide], which IC50 is on record?
A: 1 to 10 nM

Q: How did the IC50 turn out when Nc1n[nH]c(N2CCC(N(CCc3ccc(Cl)cc3)Cc3cccc(-c4nnn[nH]4)c3)CC2)n1 [Example 36, N-(3-(1H-tetrazol-5-yl)benzyl)-1-(3-amino-1H-1,2,4-triazol-5-yl)-N-(4-chlorophenethyl)piperidin-4-amine] was run?
A: 1 to 10 nM

Q: For Cc1cc(CN(CCc2ccc(Cl)cc2)C2CCN(c3nc(N)n[nH]3)CC2)ccc1C(=O)O [Example 5, 4-(((1-(3-amino-1H-1,2,4-triazol-5-yl)piperidin-4-yl)(4-chlorophenethyl)amino)-methyl)-2-methylbenzoic acid], which IC50 is on record?
A: 1 to 10 nM

Q: Which IC50 does the source give for CS(=O)(=O)Nc1cccc(CN(CCc2ccc(Cl)cc2)C2CCN(c3nc(N)n[nH]3)CC2)c1 [Example 32, N-(3-(((1-(3-amino-1H-1,2,4-triazol-5-yl)piperidin-4-yl)(4-chlorophenethyl)-amino)methyl)phenyl)methanesulfonamide] here?
A: 1 to 10 nM

Q: CC(=O)NS(=O)(=O)CCN(CCc1ccc(Cl)cc1)C1CCN(c2nc(N)n[nH]2)CC1 [Example 38, N-((2-((1-(3-amino-1H-1,2,4-triazol-5-yl)piperidin-4-yl)(4-chlorophenethyl)-amino)ethyl)sulfonyl)acetamide] was tested. Which IC50 did it give?
A: 10 to 100 nM

Q: How did the IC50 turn out when Nc1n[nH]c(N2CCC(N(CCc3ccc(Cl)cc3)Cc3cccc(S(=O)(=O)NCC(F)(F)F)c3)CC2)n1 [Example 19, 3-(((1-(3-amino-1H-1,2,4-triazol-5-yl)piperidin-4-yl)(4-chlorophenethyl)amino)-methyl)-N-(2,2,2-trifluoroethyl)benzenesulfonamide] was run?
A: 10 to 100 nM

Q: With Nc1n[nH]c(N2CCC(N(CCc3ccc(Cl)cc3)Cc3nnn[nH]3)CC2)n1 [Example 43, N-((1H-tetrazol-5-yl)methyl)-1-(3-amino-1H-1,2,4-triazol-5-yl)-N-(4-chlorophenethyl)piperidin-4-amine] as the molecule, how does the IC50 read?
A: 10 to 100 nM

Q: Nc1n[nH]c(N2CCC(N(CCc3ccc(Cl)cc3)CC3(C(=O)O)CC3)CC2)n1 [Example 30, 1-(((1-(3-amino-1H-1,2,4-triazol-5-yl)piperidin-4-yl)(4-chlorophenethyl)amino)-methyl)cyclopropanecarboxylic acid] was tested. Which IC50 did it give?
A: 1000 to 10000 nM

Q: Which IC50 does the source give for CC(=O)NS(=O)(=O)c1cccc(CN(CCc2ccc(Br)cc2)C2CCN(c3nc(N)n[nH]3)CC2)c1 [Example 18, N-((3-(((1-(3-amino-1H-1,2,4-triazol-5-yl)piperidin-4-yl)(4-bromophenethyl)-amino)methyl)phenyl)sulfonyl)acetamide] here?
A: 1 to 10 nM

Q: How did the IC50 turn out when NC(=O)c1ccc(CN(CCc2ccc(Br)cc2)C2CCN(c3nc(N)n[nH]3)CC2)cc1 [Example 34, 4-(((1-(3-amino-1H-1,2,4-triazol-5-yl)piperidin-4-yl)(4-bromophenethyl)-amino)methyl)benzamide] was run?
A: 1 to 10 nM

Q: For CC(C)C(=O)NS(=O)(=O)c1ccc(CN(CCc2ccc(Br)cc2)C2CCN(c3nc(N)n[nH]3)CC2)cc1 [Example 17, N-((4-(((1-(3-amino-1H-1,2,4-triazol-5-yl)piperidin-4-yl)(4-bromophenethyl)-amino)methyl)phenyl)sulfonyl)isobutyramide], which IC50 is on record?
A: 1 to 10 nM

Q: For CS(=O)(=O)Nc1ccc(CN(CCc2ccc(Cl)cc2)C2CCN(c3nc(N)n[nH]3)CC2)cc1 [Example 33, N-(4-(((1-(3-amino-1H-1,2,4-triazol-5-yl)piperidin-4-yl)(4-chlorophenethyl)-amino)methyl)phenyl)methanesulfonamide], which IC50 is on record?
A: 1 to 10 nM

Q: For Nc1n[nH]c(N2CCC(N(CCc3ccc(Cl)cc3)CC(=O)Nc3ccccc3)CC2)n1 [Example 21, 2-((1-(3-amino-1H-1,2,4-triazol-5-yl)piperidin-4-yl)(4-chlorophenethyl)amino)-N-phenylacetamide], which IC50 is on record?
A: 100 to 1000 nM

Q: Which IC50 does the source give for Nc1n[nH]c(N2CCC(N(CCc3ccc(Cl)cc3)Cc3ccc(F)c(C(=O)O)c3)CC2)n1 [Example 8, 5-(((1-(3-amino-1H-1,2,4-triazol-5-yl)piperidin-4-yl)(4-chlorophenethyl)amino)-methyl)-2-fluorobenzoic acid] here?
A: 10 to 100 nM

Q: Which IC50 does the source give for Cc1ccc(S(=O)(=O)NCCCN(CCc2ccc(Br)cc2)C2CCN(c3nc(N)n[nH]3)CC2)cc1 [Example 24, N-(3-((1-(3-amino-1H-1,2,4-triazol-5-yl)piperidin-4-yl)(4-bromophenethyl)-amino)propyl)-4-methylbenzenesulfonamide] here?
A: 1 to 10 nM

Q: Nc1n[nH]c(N2CCC(N(CCNC(=O)C(F)(F)F)CCc3ccc(Cl)cc3)CC2)n1 [Example 14, N-(2-((1-(3-amino-1H-1,2,4-triazol-5-yl)piperidin-4-yl)(4-chlorophenethyl)-amino)ethyl)-2,2,2-trifluoroacetamide] was tested. Which IC50 did it give?
A: 100 to 1000 nM

Q: With CC(C)NC(=O)NCCN(CCc1ccc(Cl)cc1)C1CCN(c2nc(N)n[nH]2)CC1 [Example 12, 1-(2-((1-(3-amino-1H-1,2,4-triazol-5-yl)piperidin-4-yl)(4-chlorophenethyl)-amino)ethyl)-3-isopropylurea] as the molecule, how does the IC50 read?
A: 100 to 1000 nM

Q: Which IC50 does the source give for Nc1n[nH]c(N2CCC(N(CCc3ccc(Br)cc3)Cc3ccc(S(N)(=O)=O)cc3)CC2)n1 [Example 15, 4-(((1-(3-amino-1H-1,2,4-triazol-5-yl)piperidin-4-yl)(4-bromophenethyl)amino)-methyl)benzenesulfonamide] here?
A: 1 to 10 nM

Q: CNC(=O)c1ccc(CN(CCc2ccc(Br)cc2)C2CCN(c3nc(N)n[nH]3)CC2)cc1 [Example 35, 4-(((1-(3-amino-1H-1,2,4-triazol-5-yl)piperidin-4-yl)(4-bromophenethyl)-amino)methyl)-N-methylbenzamide] was tested. Which IC50 did it give?
A: 1 to 10 nM

Q: How did the IC50 turn out when Nc1n[nH]c(N2CCC(N(CCc3ccc(Cl)cc3)Cc3ccc(Cl)c(C(=O)O)c3)CC2)n1 [Example 7, 5-(((1-(3-amino-1H-1,2,4-triazol-5-yl)piperidin-4-yl)(4-chlorophenethyl)amino)-methyl)-2-chlorobenzoic acid] was run?
A: 1 to 10 nM

Q: For Nc1n[nH]c(N2CCC(N(CCc3ccc(Cl)cc3)CC(C(=O)O)c3ccc(Cl)cc3)CC2)n1 (stereo not drawn) [Example 29, 3-((1-(3-amino-1H-1,2,4-triazol-5-yl)piperidin-4-yl)(4-chlorophenethyl)amino)-2-(4-chlorophenyl)propanoic acid], which IC50 is on record?
A: 10 to 100 nM

Q: With Nc1n[nH]c(N2CCC(N(CCCC(=O)O)CCc3ccc(Cl)cc3)CC2)n1 [Example 27, 4-((1-(3-amino-1H-1,2,4-triazol-5-yl)piperidin-4-yl)(4-chlorophenethyl)-amino)butanoic acid] as the molecule, how does the IC50 read?
A: 100 to 1000 nM

Q: With CS(=O)(=O)NC(=O)c1ccc(CN(CCc2ccc(Cl)cc2)C2CCN(c3nc(N)n[nH]3)CC2)cc1 [Example 39, 4-(((1-(3-amino-1H-1,2,4-triazol-5-yl)piperidin-4-yl)(4-chlorophenethyl)-amino)methyl)-N-(methylsulfonyl)benzamide] as the molecule, how does the IC50 read?
A: 1 to 10 nM

Q: CS(=O)(=O)NC(=O)c1cccc(CN(CCc2ccc(Cl)cc2)C2CCN(c3nc(N)n[nH]3)CC2)c1 [Example 40, 3-(((1-(3-amino-1H-1,2,4-triazol-5-yl)piperidin-4-yl)(4-chlorophenethyl)amino)-methyl)-N-(methylsulfonyl)benzamide] was tested. Which IC50 did it give?
A: 1 to 10 nM

Q: With CS(=O)(=O)NCCCN(CCc1ccc(Br)cc1)C1CCN(c2nc(N)n[nH]2)CC1 [Example 23, N-(3-((1-(3-amino-1H-1,2,4-triazol-5-yl)piperidin-4-yl)(4-bromophenethyl)-amino)propyl)methanesulfonamide] as the molecule, how does the IC50 read?
A: 1 to 10 nM

Q: How did the IC50 turn out when Nc1n[nH]c(N2CCC(N(CCNC(=O)c3ccccc3)CCc3ccc(Cl)cc3)CC2)n1 [Example 9, N-(2-((1-(3-amino-1H-1,2,4-triazol-5-yl)piperidin-4-yl)(4-chlorophenethyl)amino)-ethyl)benzamide] was run?
A: 10 to 100 nM

Q: With Nc1n[nH]c(N2CCC(N(CCC(=O)O)CCc3ccc(Cl)cc3)CC2)n1 [Example 26, 3-((1-(3-amino-1H-1,2,4-triazol-5-yl)piperidin-4-yl)(4-chlorophenethyl)-amino)propanoic acid] as the molecule, how does the IC50 read?
A: 1000 to 10000 nM

Q: Nc1n[nH]c(N2CCC(N(CCc3ccc(Cl)cc3)C(CC(=O)O)c3ccc(Cl)cc3)CC2)n1 (stereo not drawn) [Example 28, 3-((1-(3-amino-1H-1,2,4-triazol-5-yl)piperidin-4-yl)(4-chlorophenethyl)amino)-3-(4-chlorophenyl)propanoic acid] was tested. Which IC50 did it give?
A: 1000 to 10000 nM

Q: With Nc1n[nH]c(N2CCC(N(CCc3ccc(Br)cc3)Cc3cccc(C(=O)O)c3)CC2)n1 [Example 3, 3-(((1-(3-amino-1H-1,2,4-triazol-5-yl)piperidin-4-yl)(4-bromophenethyl)amino)-methyl)benzoic acid] as the molecule, how does the IC50 read?
A: 1 to 10 nM

Q: With Nc1n[nH]c(N2CCC(N(CCc3ccc(Cl)cc3)Cc3ccccc3C(=O)O)CC2)n1 [Example 2, 2-(((1-(3-amino-1H-1,2,4-triazol-5-yl)piperidin-4-yl)(4-chlorophenethyl)amino-)methyl)benzoic acid] as the molecule, how does the IC50 read?
A: 100 to 1000 nM
